The results in this text go back to US20250320193A1, “OXOISOINDOLINYL SUBSTITUTED PIPERIDINEDIONE DERIVATIVE AND USE THEREOF” (GLUETACS THERAPEUTICS (SHANGHAI) CO., LTD., priority 2022, published 2025).

Common to all, as to assay type: cell-based
One assay addresses IKZF1 (Homo sapiens (Human), UniProt Q13422+Q96SW2). In words: Western blot, substrate protein expression in hPBMC: IKZF1. To be noted: for substrate protein remaining % IKZF1: hPBMC, compound 500 nM, 24 hours, Western blot. As for the experimental part:
(§1) The effect of the compounds of the present disclosure on the expression of target proteins in cells was detected using conventional Western blot analysis.
(§2) Human peripheral blood mononuclear cells (hPBMCs) at a density of 1×10^6 cells/mL were thawed according to the PBMC Recovery Protocol (Milecell Biotechnologies Inc, Shanghai). […] After 24 hours of compounds treatment, cells were harvested and lysed in RIPA protein lysate containing phosphatase inhibitors on ice for 30-60 min, followed by centrifugation. The supernatant was aspirated as the extracted total cell protein. The protein concentration of the supernatant was determined using the conventional BCA (Bicinchoninic Acid) assay. The supernatant was then mixed with 4× SDS sample loading buffer, denatured at 95° C. for 5 minutes, and then subjected to SDS-PAGE electrophoresis on a polyacrylamide gel. Proteins were then transferred to a nitrocellulose (NC) membrane, blocked at room temperature for 1-2 h, and processed for antibody incubation and detection according to the manufacturer's instructions (Cell Signaling Technology).
(§3) Half-Maximal Degradation Concentration value (the drug concentration required for degrading proteins by 50%, abbreviated as DC50) reads method: comparing the grayscale values of Western blot bands from drug-treated samples (protein degrader compounds) with those from blank (DMSO-treated) controls, and identifying the drug concentration range at which the grayscale value is half that of the DMSO-treated control bands.
(§4) DC50 values can be calculated using ImageJ software to measure grayscale values of Western blot bands from drug-treated samples. The relationship curve between drug concentration and grayscale values is fitted to estimate the drug concentration corresponding to half the grayscale value.
(§5) Target protein remaining (%) refers to the percentage of target protein remaining in hPBMC cells after treatment with protein degrader compounds.
(§6) Calculation method for protein remaining (%): Use ImageJ software to measure grayscale values of Western blot bands from drug (protein degrader)-treated samples. The grayscale value of drug-treated bands is divided by that of internal control protein bands, and the resulting quotient is normalized to obtain the relative percentage of remaining target protein after protein degrader treatment.
(§7) Target protein degradation rate (%)=100%-target protein remaining (%).

For a further assay, the target named is IKZF3 (Homo sapiens (Human), UniProt Q96SW2+Q9UKT9). Put plainly: Western blot, substrate protein expression in hPBMC: IKZF3. The note with it: for substrate protein remaining % IKZF3: hPBMC, compound 500 nM, 24 hours, Western blot. Here is the method: as §1, §2, §3, §4, §5, §6, §7
The target of the next assay is GSPT1 (Homo sapiens (Human), UniProt P15170+Q96SW2). Put plainly: Western blot, substrate protein expression in hPBMC: GSPT1. To be noted: for substrate protein remaining % GSPT1: hPBMC, compound 500 nM, 24 hours, Western blot. Here is the method: as §1, §2, §3, §4, §5, §6, §7
Sequence of GSPT1 (P15170 whole entry): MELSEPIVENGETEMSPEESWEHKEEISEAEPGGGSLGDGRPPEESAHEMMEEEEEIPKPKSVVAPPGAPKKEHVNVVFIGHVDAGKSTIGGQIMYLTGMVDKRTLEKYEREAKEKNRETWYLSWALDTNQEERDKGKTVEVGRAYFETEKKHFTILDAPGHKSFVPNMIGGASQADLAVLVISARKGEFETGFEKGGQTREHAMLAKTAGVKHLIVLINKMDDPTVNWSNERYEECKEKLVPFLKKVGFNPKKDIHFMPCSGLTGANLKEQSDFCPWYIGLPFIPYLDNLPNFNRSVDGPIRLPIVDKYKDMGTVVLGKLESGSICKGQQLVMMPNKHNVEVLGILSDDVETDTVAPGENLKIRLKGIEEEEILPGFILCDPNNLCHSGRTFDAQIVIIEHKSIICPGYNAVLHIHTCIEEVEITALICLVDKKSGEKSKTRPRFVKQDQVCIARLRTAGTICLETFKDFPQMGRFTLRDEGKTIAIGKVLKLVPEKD
Sequence of GSPT1 (Q96SW2 whole entry): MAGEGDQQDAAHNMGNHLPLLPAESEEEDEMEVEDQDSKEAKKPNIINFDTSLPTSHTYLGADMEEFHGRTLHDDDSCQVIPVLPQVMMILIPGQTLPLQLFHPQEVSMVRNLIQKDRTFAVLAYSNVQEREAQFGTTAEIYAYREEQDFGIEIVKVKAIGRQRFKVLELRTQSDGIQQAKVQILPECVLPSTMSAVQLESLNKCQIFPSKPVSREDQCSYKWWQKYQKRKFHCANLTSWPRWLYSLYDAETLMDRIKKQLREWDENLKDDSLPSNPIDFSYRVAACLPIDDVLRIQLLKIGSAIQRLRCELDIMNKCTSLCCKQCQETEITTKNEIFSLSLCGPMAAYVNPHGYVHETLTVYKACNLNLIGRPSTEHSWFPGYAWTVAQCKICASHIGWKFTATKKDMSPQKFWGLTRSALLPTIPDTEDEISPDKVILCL
Sequence of GSPT1 (Q16531 whole entry partner): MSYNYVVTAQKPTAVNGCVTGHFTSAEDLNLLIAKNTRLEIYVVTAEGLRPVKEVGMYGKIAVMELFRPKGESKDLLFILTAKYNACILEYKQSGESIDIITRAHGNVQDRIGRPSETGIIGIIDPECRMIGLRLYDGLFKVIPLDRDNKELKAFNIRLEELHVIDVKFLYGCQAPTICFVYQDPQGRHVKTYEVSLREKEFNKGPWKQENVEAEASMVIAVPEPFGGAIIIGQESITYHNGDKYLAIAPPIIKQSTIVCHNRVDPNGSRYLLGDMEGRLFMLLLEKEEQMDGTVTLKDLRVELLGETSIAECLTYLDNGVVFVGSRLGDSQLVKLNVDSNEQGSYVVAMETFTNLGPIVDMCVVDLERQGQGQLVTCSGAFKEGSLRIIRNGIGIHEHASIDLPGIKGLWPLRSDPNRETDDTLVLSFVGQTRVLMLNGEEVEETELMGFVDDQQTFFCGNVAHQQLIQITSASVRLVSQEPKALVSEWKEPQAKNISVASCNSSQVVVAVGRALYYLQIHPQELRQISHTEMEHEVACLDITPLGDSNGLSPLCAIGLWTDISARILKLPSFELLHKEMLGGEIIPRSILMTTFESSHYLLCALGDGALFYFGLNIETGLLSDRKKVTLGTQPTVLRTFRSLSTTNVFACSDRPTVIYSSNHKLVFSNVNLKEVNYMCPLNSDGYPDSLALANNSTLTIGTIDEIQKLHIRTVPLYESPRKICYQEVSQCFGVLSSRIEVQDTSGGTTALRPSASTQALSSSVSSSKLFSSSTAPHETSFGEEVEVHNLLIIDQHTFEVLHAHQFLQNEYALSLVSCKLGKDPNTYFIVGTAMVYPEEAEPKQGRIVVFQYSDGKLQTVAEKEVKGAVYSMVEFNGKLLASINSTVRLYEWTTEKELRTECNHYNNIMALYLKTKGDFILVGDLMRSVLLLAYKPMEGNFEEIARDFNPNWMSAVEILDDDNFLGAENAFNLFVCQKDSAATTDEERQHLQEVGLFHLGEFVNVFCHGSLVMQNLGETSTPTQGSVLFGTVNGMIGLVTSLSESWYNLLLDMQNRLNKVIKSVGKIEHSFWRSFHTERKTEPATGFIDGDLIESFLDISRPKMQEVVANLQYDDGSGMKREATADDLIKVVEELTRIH

Sequence of IKZF1 (Q13422 whole entry): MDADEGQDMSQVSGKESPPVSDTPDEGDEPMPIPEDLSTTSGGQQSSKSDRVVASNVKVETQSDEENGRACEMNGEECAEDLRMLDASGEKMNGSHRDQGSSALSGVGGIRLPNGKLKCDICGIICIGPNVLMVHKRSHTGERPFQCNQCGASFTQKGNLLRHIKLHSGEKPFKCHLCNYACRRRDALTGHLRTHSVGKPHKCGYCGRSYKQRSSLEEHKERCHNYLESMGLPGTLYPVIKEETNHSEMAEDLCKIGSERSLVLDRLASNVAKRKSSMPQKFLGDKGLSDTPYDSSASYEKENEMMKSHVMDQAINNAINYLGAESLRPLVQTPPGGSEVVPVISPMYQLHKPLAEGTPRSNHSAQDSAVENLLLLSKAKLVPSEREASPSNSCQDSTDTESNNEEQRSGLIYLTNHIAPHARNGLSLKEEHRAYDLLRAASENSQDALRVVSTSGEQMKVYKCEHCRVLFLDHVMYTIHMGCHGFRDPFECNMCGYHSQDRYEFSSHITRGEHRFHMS
Sequence of IKZF1 (Q96SW2 whole entry): as the sequence (Q96SW2 whole entry) above
Sequence of IKZF1 (Q16531 whole entry partner): as the sequence (Q16531 whole entry partner) above
Sequence of IKZF3 (Q9UKT9 whole entry): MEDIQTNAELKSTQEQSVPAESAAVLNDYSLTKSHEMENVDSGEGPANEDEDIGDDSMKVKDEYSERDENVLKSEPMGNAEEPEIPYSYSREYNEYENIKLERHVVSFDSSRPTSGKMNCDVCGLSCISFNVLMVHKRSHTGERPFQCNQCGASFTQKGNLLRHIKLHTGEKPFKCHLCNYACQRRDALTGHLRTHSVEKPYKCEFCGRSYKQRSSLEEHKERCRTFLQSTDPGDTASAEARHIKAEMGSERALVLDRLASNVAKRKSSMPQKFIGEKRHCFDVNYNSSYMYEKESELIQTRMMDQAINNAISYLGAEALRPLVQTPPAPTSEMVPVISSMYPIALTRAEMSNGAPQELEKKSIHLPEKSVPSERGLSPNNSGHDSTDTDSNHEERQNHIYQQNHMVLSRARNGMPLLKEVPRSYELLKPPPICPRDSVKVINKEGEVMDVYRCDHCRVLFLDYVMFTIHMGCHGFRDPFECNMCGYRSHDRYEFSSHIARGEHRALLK
Sequence of IKZF3 (Q96SW2 whole entry): as the sequence (Q96SW2 whole entry) above
Sequence of IKZF3 (Q16531 whole entry partner): as the sequence (Q16531 whole entry partner) above

As for `O=C1CCC(N2C(=O)c3ccc(CN4CCC(N(c5ccccc5)c5ccccn5)CC4)cc3C2=O)C(=O)N1` (stereo not drawn) [GT-05742, 2-(2,6-dioxopiperidin-3-yl)-5-((4-(phenyl(pyridin-2-yl)amino)piperidin-1-yl)methyl) isoindoline-1,3-dione], the “substrate protein remaining % IKZF1” value on IKZF1 was “A (A represents 0% ≤ substrate protein remaining % ≤ 50%)”. In addition, the “concentration at which IKZF1 protein was significantly degraded (Western blot, FIG. 1)” value at IKZF1 (hPBMCs) was “below 50 nM”. Also, at IKZF3, the “substrate protein remaining % IKZF3” value is “A (A represents 0% ≤ substrate protein remaining % ≤ 50%)”. The “concentration at which IKZF3 protein was significantly degraded (Western blot, FIG. 1)” value on IKZF3 (hPBMCs) is listed as “below 50 nM”. Also, the “substrate protein remaining % GSPT1” value at GSPT1 is on record as “A (A represents 0% ≤ substrate protein remaining % ≤ 50%)”. Moreover, the “concentration at which GSPT1 protein was clearly/significantly degraded (Western blot, FIG. 1)” value on GSPT1 (hPBMCs) is given as “below 50 nM”.

With `O=C1CCC(N2Cc3ccc(C(=O)N4CCN(C(c5ccccc5)c5ccccc5)CC4)cc3C2=O)C(=O)N1` (stereo not drawn) [GT-05851, 3-(6-(4-benzhydrylpiperazine-1-carbonyl)-1-oxoisoindolin-2-yl)piperidine-2,6-dione], on IKZF1, the “substrate protein remaining % IKZF1” value is listed as “A (A represents 0% ≤ substrate protein remaining % ≤ 50%)”. Besides, at IKZF3, the “substrate protein remaining % IKZF3” value is listed as “B (B represents substrate protein remaining % > 50%)”. Further, the “substrate protein remaining % GSPT1” value at GSPT1 is recorded as “A (A represents 0% ≤ substrate protein remaining % ≤ 50%)”.

Turning to `O=C1CCC(N2C(=O)c3ccc(C(=O)N4CCN(C(c5ccccn5)c5ccccn5)CC4)cc3C2=O)C(=O)N1` (stereo not drawn) [GT-05880, 5-(4-(di(pyridin-2-yl)methyl)piperazine-1-carbonyl)-2-(2,6-dioxopiperidin-3-yl) isoindoline-1,3-dione], the “substrate protein remaining % IKZF1” value at IKZF1 is “B (B represents substrate protein remaining % > 50%)”. For the same compound, at IKZF3, the “substrate protein remaining % IKZF3” value is reported as “B (B represents substrate protein remaining % > 50%)”. In addition, the “substrate protein remaining % GSPT1” value on GSPT1 is recorded as “A (A represents 0% ≤ substrate protein remaining % ≤ 50%)”.

As for `O=C1CCC(N2C(=O)c3ccc(C(=O)N4CCN(C(c5ccc(F)cc5)c5ccc(F)cc5)CC4)cc3C2=O)C(=O)N1` (stereo not drawn) [GT-05885, 5-(4-(bis(4-fluorophenyl)methyl)piperazine-1-carbonyl)-2-(2,6-dioxopiperidin-3-yl) isoindoline-1,3-dione], on IKZF1, the “substrate protein remaining % IKZF1” value is recorded as “B (B represents substrate protein remaining % > 50%)”. For the same compound, the “substrate protein remaining % IKZF3” value at IKZF3 is “B (B represents substrate protein remaining % > 50%)”. The “substrate protein remaining % GSPT1” value at GSPT1 is recorded as “A (A represents 0% ≤ substrate protein remaining % ≤ 50%)”.

For `O=C1CCC(N2C(=O)c3ccc(C(=O)N4CCN(C(c5ccc(Cl)cc5)c5ccc(Cl)cc5)CC4)cc3C2=O)C(=O)N1` (stereo not drawn) [GT-05890, 5-(4-(bis(4-chlorophenyl)methyl)piperazine-1-carbonyl)-2-(2,6-dioxopiperidin-3-yl) isoindoline-1,3-dione], the “substrate protein remaining % IKZF1” value on IKZF1 is reported as “B (B represents substrate protein remaining % > 50%)”. The “substrate protein remaining % IKZF3” value on IKZF3 is given as “B (B represents substrate protein remaining % > 50%)”. Besides, at GSPT1, the “substrate protein remaining % GSPT1” value is recorded as “A (A represents 0% ≤ substrate protein remaining % ≤ 50%)”.

Consider `O=C1CCC(N2Cc3cc(C(=O)N4C5CC4CN(C(c4ccccc4)c4ccccc4)C5)ccc3C2=O)C(=O)N1` (stereo not drawn) [GT-05891, 3-(5-(3-benzhydryl-3,6-diazabicyclo[3.1.1]heptane-6-carbonyl)-1-oxoisoindolin-2-yl)piperidine-2,6-dione], for which, on IKZF1, the “substrate protein remaining % IKZF1” value is listed as “B (B represents substrate protein remaining % > 50%)”. Further, on IKZF3, the “substrate protein remaining % IKZF3” value is “B (B represents substrate protein remaining % > 50%)”. Further, the “substrate protein remaining % GSPT1” value on GSPT1 was “A (A represents 0% ≤ substrate protein remaining % ≤ 50%)”.

As to `O=C1CCC(N2Cc3cc(C(=O)N4CCCN(C(c5ccccc5)c5ccccc5)CC4)ccc3C2=O)C(=O)N1` (stereo not drawn) [GT-05892, 3-(5-(4-benzhydryl-1,4-diazepane-1-carbonyl)-1-oxoisoindolin-2-yl)piperidine-2,6-dione], the “substrate protein remaining % IKZF1” value on IKZF1 is given as “B (B represents substrate protein remaining % > 50%)”. Moreover, the “substrate protein remaining % IKZF3” value at IKZF3 is “B (B represents substrate protein remaining % > 50%)”. At GSPT1, the “substrate protein remaining % GSPT1” value is “A (A represents 0% ≤ substrate protein remaining % ≤ 50%)”.

Take `O=C1CCC(N2C(=O)c3ccc(CN4CCN(C5c6ccccc6-c6ccccc65)CC4)cc3C2=O)C(=O)N1` (stereo not drawn) [GT-05908, 5-((4-(9H-fluoren-9-yl)piperazin-1-yl)methyl)-2-(2,6-dioxopiperidin-3-yl) isoindoline-1,3-dione]: the “substrate protein remaining % IKZF1” value at IKZF1 was “A (A represents 0% ≤ substrate protein remaining % ≤ 50%)”. For the same compound, the “substrate protein remaining % IKZF3” value at IKZF3 is given as “A (A represents 0% ≤ substrate protein remaining % ≤ 50%)”. On GSPT1, the “substrate protein remaining % GSPT1” value was “A (A represents 0% ≤ substrate protein remaining % ≤ 50%)”.

On to `O=C1CCC(N2C(=O)c3ccc(C(=O)N4CCC(N(c5ccccc5)c5ccccn5)CC4)cc3C2=O)C(=O)N1` (stereo not drawn) [GT-05925, 2-(2,6-dioxopiperidin-3-yl)-5-(4-(phenyl(pyridin-2-yl)amino)piperidine-1-carbonyl) isoindoline-1,3-dione], for which the “substrate protein remaining % IKZF1” value on IKZF1 is on record as “B (B represents substrate protein remaining % > 50%)”. For the same compound, on IKZF3, the “substrate protein remaining % IKZF3” value is “B (B represents substrate protein remaining % > 50%)”. In addition, on GSPT1, the “substrate protein remaining % GSPT1” value was “A (A represents 0% ≤ substrate protein remaining % ≤ 50%)”.

Regarding `O=C1CCC(N2C(=O)c3ccc(C(=O)N4CCC(N(c5ccccc5)c5ccccc5)CC4)cc3C2=O)C(=O)N1` (stereo not drawn) [GT-05928, 2-(2,6-dioxopiperidin-3-yl)-5-(4-(diphenylamino)piperidine-1-carbonyl) isoindoline-1,3-dione], at IKZF1, the “substrate protein remaining % IKZF1” value is “B (B represents substrate protein remaining % > 50%)”. For the same compound, at IKZF3, the “substrate protein remaining % IKZF3” value is listed as “B (B represents substrate protein remaining % > 50%)”. The “substrate protein remaining % GSPT1” value at GSPT1 is given as “A (A represents 0% ≤ substrate protein remaining % ≤ 50%)”.

For `O=C1CCC(N2C(=O)c3cc(F)c(N4C5CCC4CN(C(c4ccccc4)c4ccccc4)C5)cc3C2=O)C(=O)N1` (stereo not drawn) [GT-05932, 5-(3-benzhydryl-3,8-diazabicyclo[3.2.1]octan-8-yl)-2-(2,6-dioxopiperidin-3-yl)-6-fluoroisoindoline-1,3-dione], on IKZF1, the “substrate protein remaining % IKZF1” value is “B (B represents substrate protein remaining % > 50%)”. The “substrate protein remaining % IKZF3” value at IKZF3 was “B (B represents substrate protein remaining % > 50%)”. Moreover, the “substrate protein remaining % GSPT1” value on GSPT1 was “A (A represents 0% ≤ substrate protein remaining % ≤ 50%)”.

As for `O=C1CCC(N2C(=O)c3cc(F)c(N4CC5CC(C4)N5C(c4ccccc4)c4ccccc4)cc3C2=O)C(=O)N1` (stereo not drawn) [GT-05934, 5-(6-benzhydryl-3,6-diazabicyclo[3.1.1]heptan-3-yl)-2-(2,6-dioxopiperidin-3-yl)-6-fluoroisoindoline-1,3-dione], the “substrate protein remaining % IKZF1” value on IKZF1 is given as “B (B represents substrate protein remaining % > 50%)”. On IKZF3, the “substrate protein remaining % IKZF3” value was “A (A represents 0% ≤ substrate protein remaining % ≤ 50%)”. The “substrate protein remaining % GSPT1” value at GSPT1 is on record as “A (A represents 0% ≤ substrate protein remaining % ≤ 50%)”.

For the compound `O=C1CCC(N2C(=O)c3ccc(N4C5CCC4CN(C(c4ccccc4)c4ccccc4)C5)cc3C2=O)C(=O)N1` (stereo not drawn) [GT-05937, 5-(3-benzhydryl-3,8-diazabicyclo[3.2.1]octan-8-yl)-2-(2,6-dioxopiperidin-3-yl) isoindoline-1,3-dione], the “substrate protein remaining % IKZF1” value at IKZF1 is listed as “B (B represents substrate protein remaining % > 50%)”. Besides, the “substrate protein remaining % IKZF3” value on IKZF3 was “B (B represents substrate protein remaining % > 50%)”. At GSPT1, the “substrate protein remaining % GSPT1” value is given as “A (A represents 0% ≤ substrate protein remaining % ≤ 50%)”.

In the case of `O=C1CCC(N2C(=O)c3ccc(N4C5CC4CN(C(c4ccccc4)c4ccccc4)C5)cc3C2=O)C(=O)N1` (stereo not drawn) [GT-05938, 5-(3-benzhydryl-3,6-diazabicyclo[3.1.1]heptan-6-yl)-2-(2,6-dioxopiperidin-3-yl) isoindoline-1,3-dione], at IKZF1, the “substrate protein remaining % IKZF1” value was “B (B represents substrate protein remaining % > 50%)”. In addition, the “substrate protein remaining % IKZF3” value on IKZF3 is reported as “B (B represents substrate protein remaining % > 50%)”. In addition, the “substrate protein remaining % GSPT1” value at GSPT1 is on record as “A (A represents 0% ≤ substrate protein remaining % ≤ 50%)”.
